In patent US20240190886A1, “BRM Targeting Compounds and Associated Methods of Use” (Prelude Therapeutics Incorporated, priority 2022, published 2024) one finds DC50 and Dmax data, which are given here for twelve molecules.

The target of one experiment is T1, SMARCA2 (Homo sapiens, UniProt P51531).
T1 construct: SMARCA2-HiBiT knock-in Hela monoclonal cell (CS302366) and SMARCA4-HiBiT knock-in Hela monoclonal cell (CS3023226) were purchased from Promega; host or cells: HeLa SMARCA2-HiBiT knock-in monoclonal cells (heterozygous knock-in)
The experiment is described as follows: SMARCA2 HiBiT degradation assay in HeLa cells. The format is cell-based. The note with it: 18 hours incubation, Nano-Glo HiBiT Lytic detection. How it is done: (§1) Example A. SMARCA2 HiBiT and SMARCA4 HiBiT Degradation Assay
(§2) HiBiT peptide knock-in of SMARCA2 in LgBiT expressing HEK293T cells was performed by CRISPR-mediated tagging system as described Promega. The homozygous HiBiT knock-in on c-terminus SMARCA2 was confirmed by sanger sequence. SMARCA2-HiBiT knock-in Hela monoclonal cell (CS302366) and SMARCA4-HiBiT knock-in Hela monoclonal cell (CS3023226) were purchased from Promega. The heterozygous HiBiT-knock-in was confirmed by sanger sequence in both SMARCA2-HiBiT and SMARCA4-HiBiT monoclonal cells.
(§3) SMARCA2 HiBiT and SMARCA4 HiBiT degradation assay in HeLa cells
(§4) Dispense 10 ul aliquot of prepared Hela-SMARCA2-HiBiT or Hela-SMARCA4-HiBiT cells (1:1 ratio of cells:Trypan Blue (#1450013, Bio-Rad)) onto cell counting slide (#145-0011, Bio-Rad) and obtain cell density and cell viability using cell counter (TC20, Bio-Rad). Remove appropriate volume of resuspended cells from culture flask to accommodate 2500 cells/well @20 μL/well. Transfer Hela-HiBiT cells to 50 mL conical (#430290, Corning). Spin down at 1000 rpm for 5 min using tabletop centrifuge (SPINCHRON 15, Beckman). Discard supernatant and resuspend cell pellet in modified EMEM (#30-2003, ATCC) cell culture media containing 10% FBS (F2422-500ML, Sigma), and 1X Penicillin/Streptomycin (200 g/L) (30-002-CI, Corning) to a cell density of 125,000 cells/mL. Dispense 20 μLof resuspended Hela-HiBit cells per well in 384-well TC treated plate (#12-565-343, Thermo Scientific) using standard cassette (#50950372, Thermo Scientific) on Multidrop Combi (#5840310, Thermo Scientific) inside laminar flow cabinet.
(§5) Compounds were dissolved in DMSO to make 10 mM stock and 3-fold series dilutions were further conducted keeping the highest concentration 10 RM. Dispense test compounds onto plates using digital liquid dispenser (D300E, Tecan). Incubate plates in humidified tissue culture incubator @37° C. for 18 hours. Add 20 μL of prepared Nano-Glo® HiBiT Lytic detection buffer (N3050, Promega) to each well of 384-well plate using small tube cassette (#24073295, Thermo Scientific) on Multidrop Combi, incubate @ RT for 30-60 min. Read plates on microplate reader (Envision 2105, PerkinElmer) using 384 well Ultra-Sensitive luminescence mode. Raw data files and compound information reports are swept into centralized data lake and deconvoluted using automated scripts designed by TetraScience, Inc. Data analysis, curve-fitting and reporting done in Dotmatics Informatics Suite using Screening Ultra module.
(§6) In Table 1, A=DC50<0.1 RM; B=0.1 μM≤DC50<1 μM and C=DC50>1 μM. In Table 4, A=Dmax>75% and B=50%<Dmax<75% and C=Dmax<50%.

Another experiment deals with T2, SMARCA4 (Homo sapiens, UniProt P51532).
T2 construct: SMARCA2-HiBiT knock-in Hela monoclonal cell (CS302366) and SMARCA4-HiBiT knock-in Hela monoclonal cell (CS3023226) were purchased from Promega; host or cells: HeLa SMARCA4-HiBiT knock-in monoclonal cells (heterozygous knock-in)
In words: SMARCA4 HiBiT degradation assay in HeLa cells. The format is cell-based. The conditions noted are these: 18 hours incubation, Nano-Glo HiBiT Lytic detection. How it is done:
as §1, §2, §3, §4, §5, §6

T1 sequence (P51531 whole entry): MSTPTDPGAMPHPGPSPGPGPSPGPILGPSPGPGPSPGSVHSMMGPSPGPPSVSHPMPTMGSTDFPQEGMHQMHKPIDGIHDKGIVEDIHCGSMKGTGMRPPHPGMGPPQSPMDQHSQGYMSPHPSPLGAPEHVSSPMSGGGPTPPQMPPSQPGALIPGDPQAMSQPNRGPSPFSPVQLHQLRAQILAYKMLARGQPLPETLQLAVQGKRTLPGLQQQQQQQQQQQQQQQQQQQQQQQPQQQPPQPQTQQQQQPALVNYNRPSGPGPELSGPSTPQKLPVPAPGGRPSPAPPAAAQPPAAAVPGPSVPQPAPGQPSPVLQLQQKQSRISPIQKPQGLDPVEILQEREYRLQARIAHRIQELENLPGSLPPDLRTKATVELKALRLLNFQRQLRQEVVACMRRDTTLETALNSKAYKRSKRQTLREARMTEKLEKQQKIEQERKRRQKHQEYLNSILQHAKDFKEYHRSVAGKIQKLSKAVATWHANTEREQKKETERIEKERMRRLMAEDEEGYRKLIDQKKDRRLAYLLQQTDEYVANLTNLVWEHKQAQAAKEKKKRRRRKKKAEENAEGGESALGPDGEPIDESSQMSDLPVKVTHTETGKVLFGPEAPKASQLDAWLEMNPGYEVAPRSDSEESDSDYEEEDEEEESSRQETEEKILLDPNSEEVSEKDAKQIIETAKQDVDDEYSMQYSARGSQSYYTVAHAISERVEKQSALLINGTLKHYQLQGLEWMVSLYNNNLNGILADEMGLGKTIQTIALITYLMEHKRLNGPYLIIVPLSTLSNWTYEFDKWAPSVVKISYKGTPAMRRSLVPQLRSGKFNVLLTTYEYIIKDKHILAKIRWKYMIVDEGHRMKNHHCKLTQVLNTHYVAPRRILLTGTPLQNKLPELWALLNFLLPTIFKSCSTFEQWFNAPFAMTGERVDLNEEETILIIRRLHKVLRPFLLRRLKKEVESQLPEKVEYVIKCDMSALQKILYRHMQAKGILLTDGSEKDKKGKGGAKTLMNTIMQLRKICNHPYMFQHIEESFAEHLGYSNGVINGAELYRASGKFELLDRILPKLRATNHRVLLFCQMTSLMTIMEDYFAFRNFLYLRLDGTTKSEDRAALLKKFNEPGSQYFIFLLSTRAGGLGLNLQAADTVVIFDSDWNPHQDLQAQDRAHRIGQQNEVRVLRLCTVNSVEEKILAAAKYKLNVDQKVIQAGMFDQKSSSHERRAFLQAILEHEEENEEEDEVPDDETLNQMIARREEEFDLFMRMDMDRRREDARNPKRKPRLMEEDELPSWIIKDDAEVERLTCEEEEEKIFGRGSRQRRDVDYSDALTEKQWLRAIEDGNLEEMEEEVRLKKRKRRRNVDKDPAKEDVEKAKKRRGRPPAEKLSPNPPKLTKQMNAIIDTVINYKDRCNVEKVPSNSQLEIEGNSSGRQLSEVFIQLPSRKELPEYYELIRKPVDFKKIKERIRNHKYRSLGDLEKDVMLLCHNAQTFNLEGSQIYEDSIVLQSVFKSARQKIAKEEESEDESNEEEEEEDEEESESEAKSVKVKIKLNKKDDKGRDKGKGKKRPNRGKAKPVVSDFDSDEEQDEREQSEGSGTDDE
T2 sequence (P51532 whole entry): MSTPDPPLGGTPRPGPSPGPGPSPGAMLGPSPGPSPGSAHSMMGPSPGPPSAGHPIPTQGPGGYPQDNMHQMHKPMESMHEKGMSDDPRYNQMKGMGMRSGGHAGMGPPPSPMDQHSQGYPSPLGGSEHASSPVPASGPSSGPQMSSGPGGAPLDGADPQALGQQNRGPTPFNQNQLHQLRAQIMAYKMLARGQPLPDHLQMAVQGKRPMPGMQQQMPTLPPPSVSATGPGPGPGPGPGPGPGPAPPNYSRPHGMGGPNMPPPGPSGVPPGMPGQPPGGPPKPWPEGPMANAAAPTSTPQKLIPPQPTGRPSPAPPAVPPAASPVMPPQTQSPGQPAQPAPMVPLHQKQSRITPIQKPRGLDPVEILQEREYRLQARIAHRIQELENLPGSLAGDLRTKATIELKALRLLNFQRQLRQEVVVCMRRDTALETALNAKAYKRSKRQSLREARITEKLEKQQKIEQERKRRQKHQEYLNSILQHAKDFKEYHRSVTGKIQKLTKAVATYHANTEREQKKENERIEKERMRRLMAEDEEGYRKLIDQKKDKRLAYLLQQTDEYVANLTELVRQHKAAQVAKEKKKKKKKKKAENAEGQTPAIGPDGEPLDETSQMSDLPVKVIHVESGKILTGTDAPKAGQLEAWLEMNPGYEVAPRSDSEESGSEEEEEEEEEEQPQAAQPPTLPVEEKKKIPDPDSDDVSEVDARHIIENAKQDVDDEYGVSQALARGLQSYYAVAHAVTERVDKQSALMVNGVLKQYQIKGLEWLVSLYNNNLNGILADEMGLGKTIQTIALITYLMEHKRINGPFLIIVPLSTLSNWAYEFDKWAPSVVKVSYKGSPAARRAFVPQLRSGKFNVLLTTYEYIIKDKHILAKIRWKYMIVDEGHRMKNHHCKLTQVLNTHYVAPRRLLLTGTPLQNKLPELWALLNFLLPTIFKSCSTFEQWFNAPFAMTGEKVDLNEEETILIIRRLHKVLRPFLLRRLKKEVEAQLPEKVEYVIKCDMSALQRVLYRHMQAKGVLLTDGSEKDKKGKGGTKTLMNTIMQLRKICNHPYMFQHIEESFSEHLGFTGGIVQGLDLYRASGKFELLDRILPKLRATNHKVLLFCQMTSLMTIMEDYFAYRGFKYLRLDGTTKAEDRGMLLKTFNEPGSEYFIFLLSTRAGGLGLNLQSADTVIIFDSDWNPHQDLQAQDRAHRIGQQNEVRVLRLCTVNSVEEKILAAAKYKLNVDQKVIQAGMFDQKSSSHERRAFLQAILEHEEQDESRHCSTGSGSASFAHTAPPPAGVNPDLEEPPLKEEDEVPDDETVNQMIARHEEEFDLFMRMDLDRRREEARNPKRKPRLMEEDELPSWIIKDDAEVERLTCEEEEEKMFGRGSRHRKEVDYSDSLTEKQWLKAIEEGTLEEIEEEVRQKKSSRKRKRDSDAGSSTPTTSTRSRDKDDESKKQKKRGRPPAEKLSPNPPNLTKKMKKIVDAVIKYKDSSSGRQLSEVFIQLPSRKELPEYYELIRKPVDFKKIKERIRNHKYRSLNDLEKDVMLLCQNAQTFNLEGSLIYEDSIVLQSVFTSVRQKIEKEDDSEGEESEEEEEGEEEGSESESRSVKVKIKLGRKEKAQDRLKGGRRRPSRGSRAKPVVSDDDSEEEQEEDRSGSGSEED

Consider `C[C@@H]1CN(CC2CCN(c3ccc(C(=O)NC4CCC(=O)NC4=O)c(F)c3)CC2)C[C@H](C)N1C(=O)N1CCN2c3cc(-c4ccccc4O)nnc3NC[C@H]2C1` (stereo partly drawn) [Example 1, N-(2,6-dioxopiperidin-3-yl)-2-fluoro-4-(4-(((3R,5S)-4-((S)-2-(2-hydroxyphenyl)-6,6a,7,8,9,10-hexahydro-5H-pyrazino[1′,2′:4,5]pyrazino[2,3-c]pyridazine-8-carbonyl)-3,5-dimethylpiperazin-1-yl)methyl)piperidin-1-yl)benzamide], for which the figures for the DC50 at SMARCA2 and on SMARCA4 were less than 100 nM and greater than 1000 nM, respectively.

As for `C[C@@H]1CN(CC2CCN(c3ccc4ncn(C5CCC(=O)NC5=O)c(=O)c4c3)CC2)C[C@H](C)N1C(=O)N1CCN2c3cc(-c4ccccc4O)nnc3NC[C@H]2C1` (stereo partly drawn) [Example 2, 3-(6-(4-(((3R,5S)-4-((S)-2-(2-hydroxyphenyl)-6,6a,7,8,9,10-hexahydro-5H-pyrazino[1′,2′:4,5]pyrazino[2,3-c]pyridazine-8-carbonyl)-3,5-dimethylpiperazin-1-yl)methyl)piperidin-1-yl)-4-oxoquinazolin-3(4H)-yl)piperidine-2,6-dione], the DC50 is less than 100 nM on SMARCA2 and 100 to 1000 nM at SMARCA4. Further, the Dmax on SMARCA2 and on SMARCA4 was 50 to 75% throughout.

As to `C[C@@H]1CN(CC2CCN(c3ccc4c(=O)n(C5CCC(=O)NC5=O)ncc4c3)CC2)C[C@H](C)N1C(=O)N1CCN2c3cc(-c4ccccc4O)nnc3NC[C@H]2C1` (stereo partly drawn) [Example 3, 3-(6-(4-(((3R,5S)-4-((S)-2-(2-hydroxyphenyl)-6,6a,7,8,9,10-hexahydro-5H-pyrazino[1′,2′:4,5]pyrazino[2,3-c]pyridazine-8-carbonyl)-3,5-dimethylpiperazin-1-yl)methyl)piperidin-1-yl)-1-oxophthalazin-2(1H)-yl)piperidine-2,6-dione], the 50% degradation concentration (DC50) is less than 100 nM on SMARCA2 and 100 to 1000 nM on SMARCA4. Moreover, the Dmax on SMARCA2 was 50 to 75%; on SMARCA4, less than 50%.

For the molecule `C[C@@H]1CN(CC2CCN(c3ccc4cn(C5CCC(=O)NC5=O)nc4c3)CC2)C[C@H](C)N1C(=O)N1CCN2c3cc(-c4ccccc4O)nnc3NC[C@H]2C1` (stereo partly drawn) [Example 4, 3-(6-(4-(((3S,5R)-4-((S)-2-(2-hydroxyphenyl)-6,6a,7,8,9,10-hexahydro-5H-pyrazino[1′,2′:4,5]pyrazino[2,3-c]pyridazine-8-carbonyl)-3,5-dimethylpiperazin-1-yl)methyl)piperidin-1-yl)-2H-indazol-2-yl)piperidine-2,6-dione], on SMARCA2, the DC50 was less than 100 nM and the Dmax is 50 to 75%. At SMARCA4, this molecule gave a DC50 of less than 100 nM and a Dmax of 50 to 75%.

Take `C[C@@H]1CN(CC2CCN(c3ccc4cnn(C5CCC(=O)NC5=O)c4c3)CC2)C[C@H](C)N1C(=O)N1CCN2c3cc(-c4ccccc4O)nnc3NC[C@H]2C1` (stereo partly drawn) [Example 5, 3-(6-(4-(((3R,5S)-4-((S)-2-(2-hydroxyphenyl)-6,6a,7,8,9,10-hexahydro-5H-pyrazino[1′,2′:4,5]pyrazino[2,3-c]pyridazine-8-carbonyl)-3,5-dimethylpiperazin-1-yl)methyl)piperidin-1-yl)-1H-indazol-1-yl)piperidine-2,6-dione]: at SMARCA2, the DC50 is 100 to 1000 nM and the Dmax was less than 50%. On SMARCA4, the half-maximal degradation concentration (DC50) is greater than 1000 nM and the maximal degradation (Dmax) is less than 50%.

In the case of `O=C1CCC(n2ncc3ccc(N4CCC(CN5C[C@@H]6[C@H](C5)[C@H]6CN5CCN6c7cc(-c8ccccc8O)nnc7NC[C@H]6C5)CC4)cc32)C(=O)N1` (stereo partly drawn) [Example 6, 3-(6-(4-(((1R,5S,6r)-6-(((S)-2-(2-hydroxyphenyl)-5,6,6a,7,9,10-hexahydro-8H-pyrazino[1′,2′:4,5]pyrazino[2,3-c]pyridazin-8-yl)methyl)-3-azabicyclo[3.1.0]hexan-3-yl)methyl)piperidin-1-yl)-1H-indazol-1-yl)piperidine-2,6-dione], at SMARCA2, the 50% degradation concentration (DC50) was 100 to 1000 nM and the Dmax was less than 50%. At SMARCA4, the DC50 is greater than 1000 nM and the Dmax was less than 50%.

On to `C[C@@H]1CN(CC2CCN(c3ccnc(C(=O)NC4CCC(=O)NC4=O)c3)CC2)C[C@H](C)N1C(=O)N1CCN2c3cc(-c4ccccc4O)nnc3NC[C@H]2C1` (stereo partly drawn) [Example 7, N-(2,6-dioxopiperidin-3-yl)-4-[4-[[(3R,5S)-4-[(1OS)-4-(2-hydroxyphenyl) 1,5,6,8,12-pentazatricyclo[8.4.0.02,7]tetradeca-2,4,6-triene-12-carbonyl]-3,5-dimethylpiperazin-1-yl]methyl]piperidin-1-yl]pyridine-2-carboxamide], for which, on SMARCA2, the DC50 was less than 100 nM and the Dmax was in the range of 50 to 75%. The half-maximal degradation concentration (DC50) at SMARCA4 was greater than 1000 nM.

Consider `Cn1nc(N2CCC(=O)NC2=O)c2ccc(N3CCC(CN4C[C@@H]5[C@H](C4)[C@H]5CN4CCN5c6cc(-c7ccccc7O)nnc6NC[C@H]5C4)CC3)cc21` [Example 8, 1-[6-[4-[[(1S,5R)-6-[[(10S)-4-(2-hydroxyphenyl)-1,5,6,8,12-pentazatricyclo[8.4.0.02,7]tetradeca-2,4,6-trien-12-yl]methyl]-3-azabicyclo[3.1.0]hexan-3-yl]methyl]piperidin-1-yl]-1-methylindazol-3-yl]-1,3-diazinane-2,4-dione], for which, on SMARCA2, the DC50 was less than 100 nM and the Dmax lay within 50 to 75%. On SMARCA4, this molecule showed a DC50 of less than 100 nM and a Dmax of 50 to 75%.

`CC[C@]12CNc3nnc(-c4ccccc4O)cc3N1C[C@H](Oc1ccc(CN3CCN(c4ccc(N5CCC(=O)NC5=O)cc4)CC3)cn1)C2` [Example 9, 1-(4-(4-((6-(((6aS,8R)-6a-ethyl-2-(2-hydroxyphenyl)-5,6,6a,7,8,9-hexahydro-pyrrolo[1′,2′:4,5]pyrazino[2,3-c]pyridazin-8-yl)oxy)pyridin-3-yl)methyl)piperazin-1-yl)phenyl)dihydropyrimidine-2,4(1H,3H)-dione]: on SMARCA2, the DC50 fell in the range of 100 to 1000 nM and the Dmax is less than 50%. At SMARCA4, this molecule gave a DC50 of less than 100 nM and a Dmax of 50 to 75%.

Regarding `CC[C@]12CNc3nnc(-c4ccccc4O)cc3N1C[C@H](Oc1ccc(CN3CCN(c4ccc(NC5CCC(=O)NC5=O)cc4)CC3)cn1)C2` (stereo partly drawn) [Example 10, 3-((4-(4-((6-(((6aS,8R)-6a-ethyl-2-(2-hydroxyphenyl)-5,6,6a,7,8,9-hexahydro-pyrrolo[1′,2′:4,5]pyrazino[2,3-c]pyridazin-8-yl)oxy)pyridin-3-yl)methyl)piperazin-1-yl)phenyl)amino)piperidine-2,6-dione], on SMARCA2, the DC50 was less than 100 nM and the Dmax is greater than 75%. Further, at SMARCA4, the DC50 is less than 100 nM and the Dmax was greater than 75%.

As for `CC[C@]12CNc3nnc(-c4ccccc4O)cc3N1C[C@H](Oc1ccc(CN3CCN(c4ccc(NC5CCC(=O)NC5=O)cc4F)CC3)cn1)C2` (stereo partly drawn) [Example 11, 3-((4-(4-((6-(((6aS,8R)-6a-ethyl-2-(2-hydroxyphenyl)-5,6,6a,7,8,9-hexahydro-pyrrolo[1′,2′:4,5]pyrazino[2,3-c]pyridazin-8-yl)oxy)pyridin-3-yl)methyl)piperazin-1-yl)-3-fluorophenyl)amino)piperidine-2,6-dione], at SMARCA2, the DC50 was less than 100 nM and the Dmax was greater than 75%. At SMARCA4, this molecule showed a half-maximal degradation concentration (DC50) of less than 100 nM and a Dmax greater than 75%.

On to `CC[C@]12CNc3nnc(-c4ccccc4O)cc3N1C[C@H](Oc1ccc(CN3CCN(c4ccc(C(=O)NC5CCC(=O)NC5=O)cc4)CC3)cn1)C2` (stereo partly drawn) [Example 12, N-(2,6-dioxopiperidin-3-yl)-4-(4-((6-(((6aS,8R)-6a-ethyl-2-(2-hydroxyphenyl)-5,6,6a,7,8,9-hexahydropyrrolo[1′,2′:4,5]pyrazino[2,3-c]pyridazin-8-yl)oxy)pyridin-3-yl)methyl)piperazin-1-yl)benzamide], for which, on SMARCA2, the DC50 was less than 100 nM and the greatest degradation seen (Dmax) is 50 to 75%. For the same molecule, on SMARCA4, the 50% degradation concentration (DC50) lay within 100 to 1000 nM and the Dmax is less than 50%.
